# Laboratory results published in PubChem BioAssay (NCI).
#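 Results reflect a 48-hour exposure of cells in 96-well plates to compound at five concentrations. GI50 marks 50% less growth. Definition used: TGI = concentration required for complete inhibition of growth.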
# Tests used:
# Assay in all cases: DTP human tumour cell line panel, 48 h
# 786-0 renal = system: 786-0 renal
# A498 renal = system: A498 renal
# A549 NSCLC = system: A549 NSCLC
# ACHN renal = system: ACHN renal
# BT-549 breast = system: BT-549 breast
# CAKI-1 renal = system: CAKI-1 renal
# CCRF-CEM leukemia = system: CCRF-CEM leukemia
# COLO 205 colon = system: COLO 205 colon
# DU-145 prostate = system: DU-145 prostate
# EKVX NSCLC = system: EKVX NSCLC
# HCC-2998 colon = system: HCC-2998 colon
# HCT-116 colon = system: HCT-116 colon
# HCT-15 colon = system: HCT-15 colon
# HL-60(TB) leukemia = system: HL-60(TB) leukemia
# HOP-62 NSCLC = system: HOP-62 NSCLC
# HOP-92 NSCLC = system: HOP-92 NSCLC
# HS 578T breast = system: HS 578T breast
# HT29 colon = system: HT29 colon
# IGROV1 ovarian = system: IGROV1 ovarian
# K-562 leukemia = system: K-562 leukemia
# KM12 colon = system: KM12 colon
# LOX IMVI melanoma = system: LOX IMVI melanoma
# M14 melanoma = system: M14 melanoma
# MALME-3M melanoma = system: MALME-3M melanoma
# MCF7 breast = system: MCF7 breast
# MDA-MB-231 breast = system: MDA-MB-231 breast
# MDA-MB-435 = system: MDA-MB-435
# MDA-N = system: MDA-N
# MOLT-4 leukemia = system: MOLT-4 leukemia
# NCI-H226 lung = system: NCI-H226 lung
# NCI-H23 lung = system: NCI-H23 lung
# NCI-H460 lung = system: NCI-H460 lung
# NCI-H522 lung = system: NCI-H522 lung
# NCI/ADR-RES ovarian = system: NCI/ADR-RES ovarian
# OVCAR-3 ovarian = system: OVCAR-3 ovarian
# OVCAR-4 ovarian = system: OVCAR-4 ovarian
# OVCAR-5 ovarian = system: OVCAR-5 ovarian
# OVCAR-8 ovarian = system: OVCAR-8 ovarian
# PC-3 prostate = system: PC-3 prostate
# RPMI-8226 leukemia = system: RPMI-8226 leukemia
# RXF 393 renal = system: RXF 393 renal
# SF-268 CNS = system: SF-268 CNS
# SF-295 CNS = system: SF-295 CNS
# SF-539 CNS = system: SF-539 CNS
# SK-MEL-2 melanoma = system: SK-MEL-2 melanoma
# SK-MEL-28 melanoma = system: SK-MEL-28 melanoma
# SK-MEL-5 melanoma = system: SK-MEL-5 melanoma
# SK-OV-3 ovarian = system: SK-OV-3 ovarian
# SN12C renal = system: SN12C renal
# SNB-19 CNS = system: SNB-19 CNS
# SNB-75 CNS = system: SNB-75 CNS
# SR leukemia = system: SR leukemia
# SW-620 colon = system: SW-620 colon
# T-47D breast = system: T-47D breast
# TK-10 renal = system: TK-10 renal
# UACC-257 melanoma = system: UACC-257 melanoma
# UACC-62 melanoma = system: UACC-62 melanoma
# UO-31 renal = system: UO-31 renal
# U251 CNS = system: U251 CNS
smiles,measurement,setting,value
C[C@@H]1CCC2[C@@H](C)[C@@H](OC3CCC(O)CC3)OC3O[C@@]4(C)CCC1[C@]32OO4 (some centres undefined),GI50,786-0 renal,> 100 µM
same,TGI,786-0 renal,> 100 µM
same,GI50,A498 renal,> 100 µM
same,TGI,A498 renal,> 100 µM
same,GI50,A549 NSCLC,67.1 µM
same,TGI,A549 NSCLC,> 100 µM
same,GI50,ACHN renal,67.2 µM
same,TGI,ACHN renal,> 100 µM
same,GI50,BT-549 breast,> 100 µM
same,TGI,BT-549 breast,> 100 µM
same,GI50,CAKI-1 renal,95.9 µM
same,TGI,CAKI-1 renal,> 100 µM
same,GI50,CCRF-CEM leukemia,37.8 µM
same,TGI,CCRF-CEM leukemia,> 100 µM
same,GI50,COLO 205 colon,8.83 µM
same,TGI,COLO 205 colon,32.7 µM
same,GI50,DU-145 prostate,> 100 µM
same,TGI,DU-145 prostate,> 100 µM
same,GI50,EKVX NSCLC,32.5 µM
same,TGI,EKVX NSCLC,> 100 µM
same,GI50,HCC-2998 colon,> 100 µM
same,TGI,HCC-2998 colon,> 100 µM
same,GI50,HCT-116 colon,71.2 µM
same,TGI,HCT-116 colon,> 100 µM
same,GI50,HCT-15 colon,3.61 µM
same,TGI,HCT-15 colon,> 100 µM
same,GI50,HL-60(TB) leukemia,4.35 µM
same,TGI,HL-60(TB) leukemia,> 100 µM
same,GI50,HOP-62 NSCLC,> 100 µM
same,TGI,HOP-62 NSCLC,> 100 µM
same,GI50,HOP-92 NSCLC,23.1 µM
same,TGI,HOP-92 NSCLC,> 100 µM
same,GI50,HS 578T breast,90.2 µM
same,TGI,HS 578T breast,> 100 µM
same,GI50,HT29 colon,97.4 µM
same,TGI,HT29 colon,> 100 µM
same,GI50,IGROV1 ovarian,> 100 µM
same,TGI,IGROV1 ovarian,> 100 µM
same,GI50,K-562 leukemia,26.8 µM
same,TGI,K-562 leukemia,> 100 µM
same,GI50,KM12 colon,51.6 µM
same,TGI,KM12 colon,> 100 µM
same,GI50,LOX IMVI melanoma,24.5 µM
same,TGI,LOX IMVI melanoma,> 100 µM
same,GI50,M14 melanoma,> 100 µM
same,TGI,M14 melanoma,> 100 µM
same,GI50,MALME-3M melanoma,> 100 µM
same,TGI,MALME-3M melanoma,> 100 µM
same,GI50,MCF7 breast,38.5 µM
same,TGI,MCF7 breast,> 100 µM
same,GI50,MDA-MB-231 breast,> 100 µM
same,TGI,MDA-MB-231 breast,> 100 µM
same,GI50,MDA-MB-435,> 100 µM
same,TGI,MDA-MB-435,> 100 µM
same,GI50,MDA-N,> 100 µM
same,TGI,MDA-N,> 100 µM
same,GI50,MOLT-4 leukemia,10.1 µM
same,TGI,MOLT-4 leukemia,> 100 µM
same,GI50,NCI-H226 lung,> 100 µM
same,TGI,NCI-H226 lung,> 100 µM
same,GI50,NCI-H23 lung,96.7 µM
same,TGI,NCI-H23 lung,> 100 µM
same,GI50,NCI-H460 lung,> 100 µM
same,TGI,NCI-H460 lung,> 100 µM
same,GI50,NCI-H522 lung,38.5 µM
same,TGI,NCI-H522 lung,> 100 µM
same,GI50,NCI/ADR-RES ovarian,39.9 µM
same,TGI,NCI/ADR-RES ovarian,> 100 µM
same,GI50,OVCAR-3 ovarian,66.7 µM
same,TGI,OVCAR-3 ovarian,> 100 µM
same,GI50,OVCAR-4 ovarian,46.4 µM
same,TGI,OVCAR-4 ovarian,> 100 µM
same,GI50,OVCAR-5 ovarian,82.4 µM
same,TGI,OVCAR-5 ovarian,> 100 µM
same,GI50,OVCAR-8 ovarian,16.1 µM
same,TGI,OVCAR-8 ovarian,> 100 µM
same,GI50,PC-3 prostate,23.9 µM
same,TGI,PC-3 prostate,> 100 µM
same,GI50,RPMI-8226 leukemia,7.04 µM
same,TGI,RPMI-8226 leukemia,> 100 µM
same,GI50,RXF 393 renal,> 100 µM
same,TGI,RXF 393 renal,> 100 µM
same,GI50,SF-268 CNS,76.5 µM
same,TGI,SF-268 CNS,> 100 µM
same,GI50,SF-295 CNS,45.8 µM
same,TGI,SF-295 CNS,> 100 µM
same,GI50,SF-539 CNS,> 100 µM
same,TGI,SF-539 CNS,> 100 µM
same,GI50,SK-MEL-2 melanoma,92.6 µM
same,TGI,SK-MEL-2 melanoma,> 100 µM
same,GI50,SK-MEL-28 melanoma,> 100 µM
same,TGI,SK-MEL-28 melanoma,> 100 µM
same,GI50,SK-MEL-5 melanoma,36.3 µM
same,TGI,SK-MEL-5 melanoma,> 100 µM
same,GI50,SK-OV-3 ovarian,> 100 µM
same,TGI,SK-OV-3 ovarian,> 100 µM
same,GI50,SN12C renal,> 100 µM
same,TGI,SN12C renal,> 100 µM
same,GI50,SNB-19 CNS,> 100 µM
same,TGI,SNB-19 CNS,> 100 µM
same,GI50,SNB-75 CNS,> 100 µM
same,TGI,SNB-75 CNS,> 100 µM
same,GI50,SR leukemia,7.84 µM
same,TGI,SR leukemia,> 100 µM
same,GI50,SW-620 colon,> 100 µM
same,TGI,SW-620 colon,> 100 µM
same,GI50,T-47D breast,19.9 µM
same,TGI,T-47D breast,> 100 µM
same,GI50,TK-10 renal,36.8 µM
same,TGI,TK-10 renal,> 100 µM
same,GI50,UACC-257 melanoma,> 100 µM
same,TGI,UACC-257 melanoma,> 100 µM
same,GI50,UACC-62 melanoma,72 µM
same,TGI,UACC-62 melanoma,> 100 µM
same,GI50,UO-31 renal,6.3 µM
same,TGI,UO-31 renal,> 100 µM
C=C1C2CC[C@@](C)(O)C2[C@H]2OC(=O)C(=C)[C@@H]2C[C@H]1O (some centres undefined),TGI,786-0 renal,39.2 µM
same,TGI,A498 renal,> 100 µM
same,TGI,A549 NSCLC,> 100 µM
same,TGI,ACHN renal,22.7 µM
same,TGI,BT-549 breast,24.8 µM
same,TGI,CAKI-1 renal,27.2 µM
same,TGI,CCRF-CEM leukemia,17.9 µM
same,TGI,COLO 205 colon,37.6 µM
same,TGI,DU-145 prostate,35.5 µM
same,TGI,EKVX NSCLC,> 100 µM
same,TGI,HCC-2998 colon,37.3 µM
same,TGI,HCT-116 colon,> 100 µM
same,TGI,HCT-15 colon,45.9 µM
same,TGI,HL-60(TB) leukemia,> 100 µM
same,TGI,HOP-62 NSCLC,> 100 µM
same,TGI,HOP-92 NSCLC,88.9 µM
same,TGI,HS 578T breast,71.5 µM
same,TGI,HT29 colon,32.7 µM
same,TGI,IGROV1 ovarian,> 100 µM
same,TGI,K-562 leukemia,> 100 µM
same,TGI,KM12 colon,46.2 µM
same,TGI,LOX IMVI melanoma,35 µM
same,TGI,M14 melanoma,31.9 µM
same,TGI,MALME-3M melanoma,30.5 µM
same,TGI,MCF7 breast,27.3 µM
same,TGI,MDA-MB-231 breast,80.1 µM
same,TGI,MDA-MB-435,> 100 µM
same,TGI,MDA-N,91.1 µM
same,TGI,MOLT-4 leukemia,60 µM
same,TGI,NCI-H226 lung,40.1 µM
same,TGI,NCI-H23 lung,36 µM
same,TGI,NCI-H522 lung,35.6 µM
same,TGI,NCI/ADR-RES ovarian,45.8 µM
same,TGI,OVCAR-3 ovarian,64.1 µM
same,TGI,OVCAR-4 ovarian,30.3 µM
same,TGI,OVCAR-5 ovarian,> 100 µM
same,TGI,OVCAR-8 ovarian,56.5 µM
same,TGI,PC-3 prostate,> 100 µM
same,TGI,RPMI-8226 leukemia,> 100 µM
same,TGI,RXF 393 renal,71.9 µM
same,TGI,SF-268 CNS,> 100 µM
same,TGI,SF-295 CNS,> 100 µM
same,TGI,SF-539 CNS,27.2 µM
same,TGI,SK-MEL-2 melanoma,50.7 µM
same,TGI,SK-MEL-28 melanoma,72.8 µM
same,TGI,SK-MEL-5 melanoma,28.8 µM
same,TGI,SK-OV-3 ovarian,80.2 µM
same,TGI,SN12C renal,59 µM
same,TGI,SNB-19 CNS,> 100 µM
same,TGI,SNB-75 CNS,> 100 µM
same,TGI,SR leukemia,> 100 µM
same,TGI,SW-620 colon,> 100 µM
same,TGI,T-47D breast,42.1 µM
same,TGI,TK-10 renal,37.8 µM
same,TGI,U251 CNS,> 100 µM
same,TGI,UACC-257 melanoma,41.8 µM
same,TGI,UACC-62 melanoma,30.1 µM
same,TGI,UO-31 renal,31.5 µM
